From PubChem BioAssay AID1159558 (GlaxoSmithKline (GSK), 2015)
Activity calls are given as the source filed them.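 The calls were made as follows: active = IC50 against T. cruzi CYP51 below a set limit; inactive = the rest.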

Target: Sterol 14-alpha demethylase (Trypanosoma cruzi (strain CL Brener)) (UniProt Q7Z1V1)
Assay: TcCYP51 inhibitors, dose response, mechanism study for T. cruzi antiparasitic project, biochemical, recombinant enzyme (AID 1159558);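 also: enzyme in bacterial membranes with Anopheles gambiae CYP reductase and cytochrome b5 partners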
Conditions: recombinant T. cruzi CYP51, BOMCC fluorescence

Chain of Sterol 14-alpha demethylase (Trypanosoma cruzi (strain CL Brener)) (Q7Z1V1 whole entry, looked up): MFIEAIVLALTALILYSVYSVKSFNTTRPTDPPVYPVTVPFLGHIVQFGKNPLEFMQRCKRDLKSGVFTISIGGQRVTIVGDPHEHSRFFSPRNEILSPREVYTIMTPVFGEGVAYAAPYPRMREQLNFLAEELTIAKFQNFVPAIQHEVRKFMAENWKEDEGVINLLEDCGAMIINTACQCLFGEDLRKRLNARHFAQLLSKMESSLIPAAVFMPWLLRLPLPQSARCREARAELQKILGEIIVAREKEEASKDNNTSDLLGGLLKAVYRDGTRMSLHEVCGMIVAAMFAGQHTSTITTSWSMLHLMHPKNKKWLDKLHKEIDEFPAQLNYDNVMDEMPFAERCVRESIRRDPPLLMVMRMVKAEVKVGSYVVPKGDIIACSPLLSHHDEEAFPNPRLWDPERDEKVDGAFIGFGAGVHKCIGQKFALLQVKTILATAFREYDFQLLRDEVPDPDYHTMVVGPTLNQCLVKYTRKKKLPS

IC50	SMILES
63 µM	Cc1cc(NC(=O)C2CC2)ccc1OC1CCN(Cc2ccco2)CC1
> 100 µM (inactive)	Cc1cc(N(C)C)nc2ccc(Cc3cnc(N)nc3N)cc12
> 100 µM (inactive)	O=C(NCc1ccc(-n2cccc2)cc1)c1nc(Cn2ccc([N+](=O)[O-])n2)no1
20 µM	COc1ccccc1CNc1cc(C2CC2)nc(-c2nccn2C)n1
1.3 µM	Cc1ccc(NC(=O)c2ccnc(N3CCCC3)c2)cc1-c1ccsc1C(N)=O
1.6 µM	CCCCCNC(=O)c1c[nH]c2ccc(S(=O)(=O)N(C)c3ccc(OCC)cc3)cc2c1=O
63 µM	COc1ccccc1-n1c(SCC(=O)Nc2ccc3c(c2)OCO3)nc2c(c1=O)SCC2
> 100 µM (inactive)	Cc1ccc(S(C)(=O)=O)cc1Nc1nccc(-c2sc(N)nc2-c2ccccc2)n1
> 100 µM (inactive)	CCC(=O)N1N=C(c2ccc3c(c2)CCCC3)Sc2c1ncn2C(=O)CC
> 100 µM (inactive)	N#Cc1ccc(S(=O)(=O)N2CCC3(CCN(c4ccccc4)C3=O)CC2)cc1
10 µM	COc1ccc2ncc(=O)n(CCN3CCOC(CNCc4ccc(C(F)(F)F)cc4F)C3)c2n1 (stereo not drawn)
> 100 µM (inactive)	COc1ccc(NS(=O)(=O)c2cccc(NC(=O)c3cc(F)cc(F)c3)c2)cc1
> 100 µM (inactive)	O=C(Nc1nc2cc(Cl)ccc2o1)c1cccc(Cl)c1
> 100 µM (inactive)	O=C(NCCc1csc(-c2cccc(F)c2)n1)c1ccco1
50 µM	O=C(NC1CCN(C2Cc3ccc(NS(=O)(=O)c4cc(F)cc(F)c4)cc3C2)CC1)C1CC1 (stereo not drawn)
> 100 µM (inactive)	CCCN(Cc1ccc(OC)c(OC)c1)Cc1cc(=O)c2c(C)cc(C)cc2[nH]1
> 100 µM (inactive)	CC(C)C[C@H](NC(=O)c1ccc(-c2ccccc2)o1)C(=O)NC1(C#N)CC1
0.016 µM	O=c1[nH]ccc2ccc(-c3ccncc3)cc12
> 100 µM (inactive)	CC(C)CC(=O)Nc1cc(C2CC2)nn1-c1nc2c(c(=O)[nH]1)CCCC2
> 100 µM (inactive)	COc1ccc(-c2nc3ncccc3o2)cc1NC(=O)c1cccs1
> 100 µM (inactive)	O=C(CSc1ccc(-c2ccccn2)nn1)Nc1ccc(Cl)cc1
32 µM	CN1C(=O)c2ccccc2Sc2ccc(NC(=O)NCc3ccco3)cc21
25 µM	COc1ccccc1C1CC(c2ccc(NS(C)(=O)=O)cc2)=NN1C(=O)c1cccs1 (stereo not drawn)
25 µM	COc1cc(NC(=O)Nc2cccc(CNC(=O)OC3CCCCC3)c2)ccc1-c1cnco1
> 100 µM (inactive)	NC(=O)c1ccsc1NC(=O)c1ccc([N+](=O)[O-])s1
16 µM	CS(=O)(=O)c1ccc(Nc2nccc(-c3cnn4ncccc34)n2)cc1

IC50	SMILES
> 100 µM (inactive)	O=C(COc1ncnc2cc([N+](=O)[O-])ccc12)NC(=O)NC1CCCCC1
> 100 µM (inactive)	CCN(CC)S(=O)(=O)c1ccc(C(=O)Nc2cc(C)nn2-c2nc(C)c(C)c(=O)[nH]2)cc1
3.2 µM	O=C(CN1CCN(c2ccccn2)CC1)Nc1cc(S(=O)(=O)N2CCCCCC2)ccc1Cl
79 µM	N#Cc1ccccc1S(=O)(=O)N1CCN(C(=O)CNC(=O)c2ccc3c(c2)OCO3)CC1
3.2 µM	CCc1cccc(CC)c1-n1c(SCC(=O)N2CC(=O)Nc3ccccc32)nnc1-c1cccnc1
0.1 µM	O=S(=O)(c1ccccc1C(F)(F)F)N1CCN(Cc2ccc(-n3ccnc3)cc2)CC1
40 µM	CC(C(=O)Nc1ccc(Br)cc1)N1CCN(c2ccc([N+](=O)[O-])cc2)CC1 (stereo not drawn)
25 µM	Cc1nn2c(NCCCO)c3c(nc2c1-c1cccs1)CCC3
> 100 µM (inactive)	COc1ccc(S(=O)(=O)NC(C)C)cc1Nc1ncc(-c2cccc(F)c2)cn1
0.063 µM	Clc1cc(Br)ccc1OCCCCn1ccnc1
0.079 µM	CCC(c1ccc(F)cc1)n1cncc1-c1cnn(C)c1 (stereo not drawn)
20 µM	Cc1ccc(NC(=O)c2ccc([N+](=O)[O-])s2)cc1S(=O)(=O)N1CCOCC1
0.05 µM	CN(Cc1ccc(F)cc1)c1ccc(OCC(=O)N2CCCCC2c2cccnc2)nn1 (stereo not drawn)
7.9 µM	Cc1cc(C)cc(NS(=O)(=O)c2cc(-c3cc(C)[nH]n3)ccc2C)c1
> 100 µM (inactive)	Cc1nn(-c2nc(N)nc(-c3ccccn3)n2)c(N)c1-c1ccccc1
> 100 µM (inactive)	CC(C)(C)C(=O)Nc1cc(C2CC2)nn1-c1nc2c(c(=O)[nH]1)CCCC2
> 100 µM (inactive)	CC(=O)Nc1ccc(-c2noc(CC3CCCN(Cc4cccc(F)c4C)C3)n2)cc1 (stereo not drawn)
50 µM	O=C(CCCn1cnc([N+](=O)[O-])n1)Nc1cccc(Cl)c1
40 µM	CCN(CC)c1ncc(C(=O)c2ccc([N+](=O)[O-])o2)s1
3.2 µM	C[C@@H](Oc1cc(-n2cnc3cc(N)ccc32)sc1C(N)=O)c1ccccc1Cl
0.079 µM	Cn1c(CN2CCN(c3ncc(C(F)(F)F)cc3Cl)CC2)nc2ccncc21
40 µM	Cc1cc(Nc2ccc(C#N)c(Cl)c2C)n[nH]1
> 100 µM (inactive)	CCCNC(=O)Nc1cccc(-c2nc3ncccc3o2)c1
0.2 µM	COc1ccc(CN2CCCCC2c2nc(-c3cccnc3)no2)cc1 (stereo not drawn)
32 µM	O=C(NNC(=O)c1ccccn1)c1ccc(-c2ccccc2)cc1
> 100 µM (inactive)	O=C(Nc1ccc(S(=O)(=O)N2CCCC2)cc1)c1ccc([N+](=O)[O-])s1

IC50	SMILES
13 µM	CCC(CC)C(=O)Nc1ccc(-c2nnc(-c3ccc(OC)cc3)o2)cc1
16 µM	COc1ccc(S(=O)(=O)NCc2ccc(-c3ccc(CN(C)CCO)cc3)cc2)cc1
13 µM	COc1ccc(Nc2nc(NC3CCC(O)CC3)ncc2Br)c(C(N)=O)c1 (stereo not drawn)
16 µM	CC(C)S(=O)(=O)c1ccc(-c2cnc(N)c3cc(-c4ccnc(N)n4)ccc23)cc1
25 µM	C[C@@H](Oc1cc(-n2cnc3ccc(CC(O)CO)cc32)sc1C(N)=O)c1ccccc1Cl (stereo partly drawn)
10 µM	CCCn1c(NC(=O)CCn2cc(Br)cn2)nc2ccccc21
> 100 µM (inactive)	O=C(Nc1ncc([N+](=O)[O-])s1)C1CC1
1 µM	Cn1cncc1CN1CCC2(CC1)COC(Cc1ccccc1)C2 (stereo not drawn)
40 µM	O=C(CN(Cc1ccccn1)Cc1ccccn1)NCc1csc(-c2cccs2)n1
> 100 µM (inactive)	Cc1[nH]n2c(=O)c3c(nc2c1-c1ccc(F)cc1)CCCC3
0.05 µM	O=C(c1ccc(OCCCc2cnc[nH]2)cc1)C1CC1
1 µM	CCc1cccc(CC)c1-n1c(SCC(=O)NC(=O)NCc2ccco2)nnc1-c1cccnc1
63 µM	COc1cccc(S(=O)(=O)Nc2ccc3c(c2)CC(N2CCC(NC(=O)C4CC4)CC2)C3)c1 (stereo not drawn)
> 100 µM (inactive)	COc1cc(C(C)C)c(S(C)(=O)=O)cc1C(=O)N1CCN(c2ccccc2Cl)CC1
0.04 µM	O=S(=O)(NCC(c1cccnc1)N1CCN(c2ccc(F)cc2)CC1)c1cccs1 (stereo not drawn)
> 100 µM (inactive)	O=c1ccc2ccc(F)c3c2n1C[C@H]3CN1CCN(CC(O)c2cc3c(cn2)OCS3)CC1 (stereo partly drawn)
> 100 µM (inactive)	O=C1NCc2cccc(Nc3nc(NC4CCC(O)CC4)ncc3Br)c21 (stereo not drawn)
7.9 µM	CC(C)(C)c1csc(NC(=O)c2ccc([N+](=O)[O-])s2)n1
16 µM	Cc1ccc(NC(C)C(=O)Nc2ccc(C#N)cc2)cc1S(=O)(=O)N1CCCCC1 (stereo not drawn)
50 µM	O=C(Nc1nc(-c2ccc(F)cc2)cs1)c1ccc([N+](=O)[O-])s1
20 µM	CS(=O)(=O)c1ccccc1C(=O)N(Cc1ccccc1)c1ccccc1
0.13 µM	O=C(NCCc1ccccn1)C(c1cn[nH]c1)N1CCN(c2ccc(Cl)c(Cl)c2)CC1 (stereo not drawn)
> 100 µM (inactive)	Cc1cc(Oc2cc(Cl)c(Cl)cc2Cl)n2ncnc2n1
10 µM	Cc1ccccc1NS(=O)(=O)c1ccc2[nH]cc(C(=O)NC3CCCCC3)c(=O)c2c1
> 100 µM (inactive)	CCCc1nc2nc(N)nc(N)c2cc1CC
40 µM	COc1ncc(-c2ccc3ncnc(N4CCOCC4)c3c2)cc1NS(C)(=O)=O

IC50	SMILES
32 µM	O=c1ccc2ccc(F)c3c2n1C[C@H]3CN1CCC(NCc2cc3ccccc3o2)CC1
0.13 µM	CN(Cc1nnnn1C1CCN(Cc2ccc(-n3ccnc3)cc2)CC1)c1ccc(F)cc1F
> 100 µM (inactive)	CCCc1cc(N)nc(-c2cc(CCC)cc(N)n2)c1
> 100 µM (inactive)	Cc1cc(C)c(C#N)c(SCC(=O)c2ccc3c(c2)OCO3)n1
10 µM	COc1ccc(-c2cnc(NC(=O)c3ccc(F)cc3)n2C)cc1
> 100 µM (inactive)	COCc1cc(Nc2ccc(Cl)cc2)nc(-c2ccccn2)n1
> 100 µM (inactive)	COc1ccc(Cl)cc1CC(=O)Nc1n[nH]c(-c2ccccn2)n1
79 µM	COc1ncc(-c2ccc3nccc(-c4ccncc4)c3c2)cc1NS(C)(=O)=O
0.1 µM	Cc1ccc2c(c1)-c1onc(C(=O)N3CCCCC3c3cccnc3)c1CO2 (stereo not drawn)
40 µM	CC(c1cc(Cl)cc(Cl)c1)N(C)c1ncc2c(N)nc(N)nc2n1 (stereo not drawn)
> 100 µM (inactive)	CS(=O)(=O)c1ccc(CC(=O)Nc2nc(-c3ccc(Cl)s3)cs2)cc1
16 µM	COc1cc(Cl)c(C)cc1NC(=O)c1ccc([N+](=O)[O-])s1
25 µM	CC(C)(C)Nc1nc(Nc2ccc3c(c2)CS(=O)(=O)C3)nc2[nH]ccc12
> 100 µM (inactive)	CC(C)C[C@H](NC(=O)c1csc(-c2cccs2)n1)C(=O)NC1(C#N)CC1
> 100 µM (inactive)	CCOC(=O)c1noc(N)c1-c1ccccc1
79 µM	Nc1cc(-c2ccc3ncnc(N4CCOCC4)c3c2)cnc1N
40 µM	NS(=O)(=O)c1ccc(CNC(=O)c2ccc([N+](=O)[O-])s2)cc1
0.1 µM	c1ccc(CCNCc2cncc3nc(-c4cnccn4)n(C4CCCCC4)c23)cc1
20 µM	COc1ccc(Nc2nc(-c3ccccn3)cs2)c(OC)c1
32 µM	CNS(=O)(=O)c1ccccc1Nc1nc(Nc2ccnn2C)ncc1Cl
> 100 µM (inactive)	CCc1cc(C(=O)Nc2nccn2-c2ccccc2)cs1
> 100 µM (inactive)	O=C(COc1ccccc1)Nc1ccccc1C(=O)Nc1nccs1
13 µM	COc1ccc(C2CC(c3ccc(NS(C)(=O)=O)cc3)=NN2C(=O)c2cccs2)cc1OC (stereo not drawn)

SMILES	IC50
Cc1[nH]nc2c1C(c1ccc(OCc3ccccc3F)cc1)SCC(=O)N2 (stereo not drawn)	> 100 µM (inactive)
CC(C)N(C(=O)CN1C(=O)C(N)C(=O)N(c2ccccc2)c2ccccc21)c1ccccc1 (stereo not drawn)	0.32 µM
